From publication PMC4645123, “Catestatin attenuates endoplasmic reticulum induced cell apoptosis by activation type 2 muscarinic acetylcholine receptor in cardiac ischemia/reperfusion” (Scientific Reports, 2015)

Columns and labels:
isolated heart = experiment: Langendorff-perfused heart, global ischemia/reperfusion (I/R) with CST pretreatment; parameters: species or system rat; conditions: AF-DX116 pretreating for 20 min before CP, then I/R
Description: Rats fed a standard diet were heparinized (200 IU) and anesthetized with sodium pentobarbital (50 mg/kg, intraperitoneally). Hearts were excised and rapidly moved to a Langendorff perfusion system as described. After 30-min stabilization, hearts underwent 30-min normoxia, zero-flow global ischemia for 30 min, followed by 60-min reperfusion (I/R group). For the CP group, CST (100 nM) was infused for 15 min before ischemia (Fig. 1A). Cardiac function including left ventricular end diastolic pressure (LVEDP), LV systolic pressure (LVSP), and maximal and minimal LV pressure development (±dp/dtmax) were recorded. […] Images in each slice were analyzed by image pro plus software. The volume of infarcted tissue (white) and the risk zone (total) was then calculated by each area […] slice thickness and summing the results. The infarct size was expressed as the percentage of the risk zone[36]. Total 12 rats were sacrificed for the infarct size assay. Other rats, while finished I/R procedure, the apex of heart (about 100 mg) was quickly removed for western blot assay. The residual heart were cut about 5 mm high (from the site of apex), embedded with OCT then the frozen slice were prepared for apoptosis staining (Methods of western blot and apoptosis assay are available in the Supplementary methods online).

M2 receptors = conditions: no reference given; cited from earlier work
Description: To investigate the interaction of CST with M2 receptor and as an endogenous ligand, we used radioactive isotope [^125-I]-labeled CST (0.4 μM) as a ligand, and N-methylscopolamine (NMS:0.045 nM to 0.3 μM) as a “cold” ligand were co-incubated with membrane protein (200 μg) in H9c2 cardiomyblasts.

H9c2 cells = experiment: cAMP assay (cAMP-Glo Max Assay Kit); assay type: cell-based, rat; conditions: for effect of antagonist on CST lowering of isoproterenol-induced cAMP / effect of antagonist on CST lowering of forskolin-induced cAMP: AF-DX116 100 nM or himbacine 1 μM 20 min; for effect of antagonist on CST lowering of isoproterenol-induced cAMP: then CST 50 nM with isoproterenol 1 μM; for effect of antagonist alone on increased cAMP level with isoproterenol: AF-DX116 100 nM or himbacine 1 μM, 20 min pretreatment, isoproterenol 1 μM; for effect of antagonist on CST lowering of forskolin-induced cAMP: pirenzepine 1 μM, then CST 50 nM with forskolin 100 μM
Description: H9c2 cells were subcultured at 1 x 10^4 cells in 96-well plates. Cell were pretreated with […]
pirenzepine (1 μM), AF-DX116 (100 nM) or himbacine (1 μM) for 20 min, then incubated with CST (50 nM) or carbamoylcholine (100 μM) along with isoproterenol (1 μM) or forskolin (100 μM) for 30 min. Cell underwent cAMP assay with the cAMP-Glo Max Assay

M2 receptor = conditions: read-out: KD values, binding ability to M2 receptor; cited from earlier work
Excerpt: Muscarinic receptor expression is abundant in ventricular muscle. Acetylcholine has protective role in cardiac I/R in vitro, but it is non-selective ligand and activates all cholinergic receptor subtype, which limited its application due to enormous side effects. Here we identified that CST is a selective ligand of M2 receptor with high affinity and its intracellular signal (cAMP, PI3 K and ERK1/2) is consistent with M2 receptor agonist.

H9c2 cardiomyoblasts = experiment: Apoptosis (cleaved caspase-3 staining) in cells under A/R or ER stress inducers; assay type: cell-based, rat; conditions: PD98059 20 μM or wortmannin 10 nM for 30 min, then CST 100 nM 30 min
Description: H9c2 rat cardiomyoblasts or neonatal cardiomyocytes were cultured in DMEM with 10% fetal bovine serum (FBS) and 1% penicillin/streptomycin at 37 °C, 5% CO2. Medium was changed to fresh medium (serum-free), and cells were cultured under anoxia with 95% N2 and 5% CO2 for 12 h at 37 °C, then incubated in a standard incubator for 4 h (A/R)[38]. […] page 1: Catestatin attenuates endoplasmic reticulum induced cell apoptosis by activation type 2 muscarinic acetylcholine receptor in cardiac ischemia/reperfusion Feng Liao1*, Yang Zheng1*, Junyan Cai1, Jinghui Fan1, Jing Wang1, Jichun Yang1,2, Qinghua Cui1,2, Guoheng Xu1, Chaoshu Tang1, Bin Geng1,2 1. Department of Physiology and Pathophysiology, School of Basic Medical Science, Peking University, P.R. China. 2. Center for Noncoding RNA Medicine, Peking University Health Science Center Online Methods 1. Western blot analysis Cultured H9c2 cells or rat hearts were lysed in RIPA lysis buffer (Cell Signaling). Proteins were denatured and 50 μg protein was loaded and isolated by SDS-PAGE electrophoresis, then transferred to a nitrocellulose membrane. […] The antigens were detected by the chemiluminescence method (ECL western blot detection kit, Applygen) with horseradish peroxidase-linked anti-mouse or anti-rabbit secondary antibody. […] Images were captured by fluorescence microscopy and apoptotic cells were analyzed by use of Image-Pro Plus. […]

[1] = system: ischemic-reperfused rat heart; conditions: peptide 100 nM treatment for 2 h during reperfusion phase; cited from earlier work
Description: Firstly we identified the endogenous CST reducing after I/R, but its precursor ChgA expression were no changes. That means increased enzymes (which catalyzed ChgA to generate CST) activity during I/R, although the enzymes were not identified until now. CST pretreatment compensated to endogenous CST decrease, thus lowered the infarct size and improved cardiac function in rats under I/R, which agreed with studies of CST post-conditioning[16][17]. However, human wild type CST (100 nM) treatment for 2 h during reperfusion phase increased, but Gly^364Ser variant peptide lowered infarct size; becaus ...

[2] = molecular target: T1, M2 muscarinic acetylcholine receptor (Rattus norvegicus, UniProt P10980); experiment: radioligand binding (Scatchard)
T1 chain: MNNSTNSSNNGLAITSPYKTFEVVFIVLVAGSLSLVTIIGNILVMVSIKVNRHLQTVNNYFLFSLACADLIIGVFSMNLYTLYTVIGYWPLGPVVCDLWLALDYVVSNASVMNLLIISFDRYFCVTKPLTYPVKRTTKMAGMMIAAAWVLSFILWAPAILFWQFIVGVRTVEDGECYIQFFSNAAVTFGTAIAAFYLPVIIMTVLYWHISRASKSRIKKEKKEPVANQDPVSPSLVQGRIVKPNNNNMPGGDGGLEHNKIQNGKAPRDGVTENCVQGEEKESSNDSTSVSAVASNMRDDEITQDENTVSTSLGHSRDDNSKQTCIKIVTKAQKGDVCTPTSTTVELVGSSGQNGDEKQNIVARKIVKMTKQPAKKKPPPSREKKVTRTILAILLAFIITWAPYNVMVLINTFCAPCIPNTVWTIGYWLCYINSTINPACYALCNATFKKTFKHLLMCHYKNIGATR

[3] = molecular target: T1, M2 muscarinic acetylcholine receptor; experiment: radioligand competition binding

In the case of `CCN(CC)CC1CCCCN1CC(=O)N1c2ccccc2C(=O)Nc2cccnc21` (centres unmarked) [AF-DX116, Otenzepad], the “effect on the protective effects of CP on infarct size, LDH leakage and cTNI level” value (isolated heart) is given as “blocked”, the IC50 (M2 receptors) is given as 50 nM and the “effect of antagonist on CST lowering of isoproterenol-induced cAMP” value (H9c2 cells) is given as “blocked”. For the same molecule, the “effect of antagonist alone on increased cAMP level with isoproterenol” value (H9c2 cells) was “did not affect” and the “effect of antagonist on CST lowering of forskolin-induced cAMP” value (H9c2 cells) was “blocked”.

For `COc1ccc2cc3[n+](cc2c1OC)CCc1cc2c(cc1-3)OCO2` [Berberine], the Kd (M2 receptor) is listed as 5400 nM.

In the case of `COc1cccc(-c2cc(=O)c3ccccc3o2)c1N` [PD98059], the “effect of inhibitor on CST protection on cell apoptosis” value (H9c2 cardiomyoblasts) is reported as “reversed”.

With `C[N+](C)(C)CCOC(N)=O` [carbamoylcholine] the “cAMP level induced by isoproterenol” value (H9c2 cells; CST 50 nM or carbamoylcholine 100 μM with isoproterenol 1 μM for 30 min) was “lowered”.

In the case of `C[C@@H]1OC(=O)[C@H]2C[C@H]3CCCC[C@@H]3[C@@H](/C=C/[C@H]3CCC[C@H](C)N3C)[C@@H]12` [himbacine], the “effect of antagonist on CST lowering of isoproterenol-induced cAMP” value (H9c2 cells) is reported as “blocked”, the “effect of antagonist alone on increased cAMP level with isoproterenol” value (H9c2 cells) is reported as “did not affect” and the “effect of antagonist on CST lowering of forskolin-induced cAMP” value (H9c2 cells) is reported as “blocked”.

For `COC[C@H]1OC(=O)c2coc3c2[C@@]1(C)C1=C(C3=O)[C@@H]2CCC(=O)[C@@]2(C)C[C@H]1OC(C)=O` [wortmannin], the “effect of inhibitor on CST protection on cell apoptosis” value (H9c2 cardiomyoblasts) was “reversed”.

In the case of “Gly^364Ser variant peptide: Gly364Ser variant of human catestatin”, the infarct size [1] is listed as “lowered”.

B1: Catestatin (peptide)
chain: SSMKLSFRARGYGFRGPGPQL
modifications: AF-DX116 50 nM
In the case of B1, the Kd [2] is reported as 45.8 nM and the IC50 [3] is reported as 36 nM.

B2: Catestatin (peptide)
chain: SSMKLSFRARGYGFRGPGPQL
With B2 the Kd [2] was 18.6 nM and the IC50 [3] was 25.7 nM.
